Test results reported in patent US20230117034A1, “PYRAZOLOTRIAZINES” (Bayer Aktiengesellschaft, priority 2019, published 2023).
Where two headings read alike, the source gives them in different places.

What was measured:
[1] = test system: CAL-120, human breast adenocarcinoma cells; assay: Proliferation assay CAL-120 (crystal violet, 4 days); assay type: cell-based; conditions: CAL-120 cells, median, read-out: Prolif-CAL-120, IC50-[mol/l] (median)
Method in brief: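 Following a 24 h attachment in 10% fetal calf serum medium, cells receive test substance over 0.01-10 µmol/L for 4 days. Dye retained by fixed cells is eluted and read at 595 nm; cell number change is referenced to day-0 and untreated wells.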

[2] = biological target: T1, CYCLIN K (nuclear staining in CAL-120 cells) (Homo sapiens, UniProt O75909); assay: CYCLIN K nuclear protein level: immunofluorescence high content analysis (CAL-120); assay type: cell-based; conditions: 24 h, 50% reduction of nuclear CCNK staining intensity, median, read-out: CYCLIN K degradation IF, DC50-[mol/l] (median)
T1 construct: endogenous in cells; host or cells: CAL-120 human breast cancer cells (DSMZ ACC 459)
T1 sequence (O75909 whole entry): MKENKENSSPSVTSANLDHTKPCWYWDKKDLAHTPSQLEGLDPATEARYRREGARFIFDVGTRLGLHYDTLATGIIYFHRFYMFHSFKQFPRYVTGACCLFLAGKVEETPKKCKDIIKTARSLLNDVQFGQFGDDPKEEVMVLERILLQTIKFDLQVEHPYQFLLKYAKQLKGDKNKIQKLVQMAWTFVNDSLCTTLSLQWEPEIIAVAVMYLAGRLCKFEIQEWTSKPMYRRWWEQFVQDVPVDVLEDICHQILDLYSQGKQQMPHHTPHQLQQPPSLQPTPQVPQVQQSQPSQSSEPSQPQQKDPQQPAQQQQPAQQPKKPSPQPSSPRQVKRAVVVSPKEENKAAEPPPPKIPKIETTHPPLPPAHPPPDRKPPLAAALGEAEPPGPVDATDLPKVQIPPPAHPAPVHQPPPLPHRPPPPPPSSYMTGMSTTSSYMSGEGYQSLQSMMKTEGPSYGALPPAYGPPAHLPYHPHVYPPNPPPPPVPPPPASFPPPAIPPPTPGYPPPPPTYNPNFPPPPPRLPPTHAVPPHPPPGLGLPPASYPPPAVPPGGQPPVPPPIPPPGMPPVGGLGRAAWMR
T1 sequence (Q9NYV4 whole entry partner): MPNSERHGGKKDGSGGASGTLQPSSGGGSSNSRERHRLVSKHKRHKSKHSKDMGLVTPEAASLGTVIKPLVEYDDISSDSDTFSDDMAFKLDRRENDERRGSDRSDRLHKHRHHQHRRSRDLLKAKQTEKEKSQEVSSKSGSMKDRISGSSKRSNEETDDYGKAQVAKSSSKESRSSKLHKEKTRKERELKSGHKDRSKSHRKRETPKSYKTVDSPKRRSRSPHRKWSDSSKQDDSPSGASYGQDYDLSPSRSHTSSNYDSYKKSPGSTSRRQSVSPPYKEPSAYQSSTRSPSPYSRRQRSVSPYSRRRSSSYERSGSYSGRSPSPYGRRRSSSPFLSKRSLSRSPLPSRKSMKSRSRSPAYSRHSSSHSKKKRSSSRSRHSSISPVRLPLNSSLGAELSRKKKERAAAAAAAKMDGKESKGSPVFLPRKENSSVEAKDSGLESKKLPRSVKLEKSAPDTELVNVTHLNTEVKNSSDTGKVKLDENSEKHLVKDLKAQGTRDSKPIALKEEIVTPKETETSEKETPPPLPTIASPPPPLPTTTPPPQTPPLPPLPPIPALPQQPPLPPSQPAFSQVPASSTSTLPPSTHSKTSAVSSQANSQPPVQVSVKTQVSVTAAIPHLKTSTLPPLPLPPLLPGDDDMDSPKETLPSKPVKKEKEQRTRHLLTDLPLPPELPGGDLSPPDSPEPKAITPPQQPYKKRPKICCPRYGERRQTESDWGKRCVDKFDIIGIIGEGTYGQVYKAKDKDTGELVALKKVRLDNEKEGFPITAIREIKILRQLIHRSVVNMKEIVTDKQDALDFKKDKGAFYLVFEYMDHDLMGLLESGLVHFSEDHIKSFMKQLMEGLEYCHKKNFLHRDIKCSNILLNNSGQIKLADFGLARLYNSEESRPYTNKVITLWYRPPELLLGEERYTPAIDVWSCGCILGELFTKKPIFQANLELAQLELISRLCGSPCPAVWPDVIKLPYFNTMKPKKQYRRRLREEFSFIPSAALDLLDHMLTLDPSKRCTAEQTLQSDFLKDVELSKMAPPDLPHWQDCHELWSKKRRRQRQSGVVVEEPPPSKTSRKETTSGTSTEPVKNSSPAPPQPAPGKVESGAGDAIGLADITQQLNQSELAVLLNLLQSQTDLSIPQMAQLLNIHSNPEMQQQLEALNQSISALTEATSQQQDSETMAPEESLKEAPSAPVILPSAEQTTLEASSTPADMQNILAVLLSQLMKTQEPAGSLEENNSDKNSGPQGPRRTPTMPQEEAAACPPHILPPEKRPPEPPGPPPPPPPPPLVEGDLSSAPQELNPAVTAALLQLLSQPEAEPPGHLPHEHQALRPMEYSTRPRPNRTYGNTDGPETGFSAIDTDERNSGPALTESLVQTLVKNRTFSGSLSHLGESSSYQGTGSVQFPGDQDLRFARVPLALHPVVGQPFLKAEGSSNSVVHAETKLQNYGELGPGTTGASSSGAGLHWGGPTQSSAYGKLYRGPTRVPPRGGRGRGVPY
Method in brief: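 CAL-120 breast cancer cells treated in dose-response for 24 h at 37 °C, PFA-fixed and immunostained for cyclin K with Hoechst counterstain. Confocal imaging quantified nuclear intensity; DC50 is the concentration giving 50% reduction of nuclear CCNK staining, normalized to DMSO and control.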

[3] = test system: BRCA1 mRNA expression in MDA-MB-231 cells; assay: qRT-PCR assay: BRCA1 mRNA expression in MDA-MB-231; assay type: cell-based, human; conditions: Homo sapiens, MDA-MB-231, Inhibition of BRCA1 mRNA expression in MDA-MB-231 cells; median; read-out: RTqPCR-MDA-MB-231, IC50, BRCA1 (median)
Method in brief: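 GAPDH-normalised RT-qPCR measures the transcript after 24 h continuous compound treatment of cells seeded at 200,000/well one day earlier.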

Compound | IC50 ([1]; Homo sapiens, CAL-120, 96 h) [nM] | DC50 [2] [nM] | IC50 [3] [nM] | IC50 [1] [nM]
Brc1cnn2c(NCc3nc4ccccc4[nH]3)nc(N3CC4CCNC4C3)nc12 (stereo not drawn) [Example 271, 2-(2,3,3a,4,6,6a-hexahydro-1H-pyrrolo[2,3-c]pyrrol-5-yl)-N-(1H-benzimidazol-2-ylmethyl)-8-bromo-pyrazolo[1,5-a][1,3,5]triazin-4-amine] | 23.2 | 1.21 | 13.9 | 
C[C@@H]1CN(c2nc(NCc3nc4ccccc4[nH]3)n3ncc(C4CC4)c3n2)C[C@H](C)N1 [Example 248, N-[(1H-benzimidazol-2-yl)methyl]-8-cyclopropyl-2-[(3R,5S)-3,5-dimethylpiperazin-1-yl]pyrazolo[1,5-a][1,3,5]triazin-4-amine] | 3.13 | 0.648 | 1.6 | 
Clc1cc2nc(CNc3nc(N4CCOCC4)nc4c(C5CC5)cnn34)[nH]c2cc1Cl [Example 301, 8-cyclopropyl-N-[(5,6-dichloro-1H-benzimidazol-2-yl)methyl]-2-(morpholin-4-yl)pyrazolo[1,5-a][1,3,5]triazin-4-amine] | 5.74 | 0.59 | 6.73 | 
Fc1ccc2[nH]c(CNc3nc(N4CC5CCC(C4)N5)nc4c(C(F)(F)F)cnn34)nc2c1F [Example 310, 2-(3,8-diazabicyclo[3.2.1]octan-3-yl)-N-[(4,5-difluoro-1H-benzimidazol-2-yl)methyl]-8-(trifluoromethyl)pyrazolo[1,5-a][1,3,5]triazin-4-amine] | 1.74 | 0.29 | 35.1 | 
Fc1ccc2[nH]c(CNc3nc(N4CCOCC4)nc4c(CC(F)(F)F)cnn34)nc2c1F [Example 268, N-[(4,5-difluoro-1H-benzimidazol-2-yl)methyl]-2-(morpholin-4-yl)-8-(2,2,2-trifluoroethyl)pyrazolo[1,5-a][1,3,5]triazin-4-amine] | 5.59 | 0.756 | 3.23 | 
Fc1ccc2[nH]c(CNc3nc(N4CCOCC4)nc4c(C5CC5(F)F)cnn34)nc2c1F (stereo not drawn) [Example 278, N-[(4,5-difluoro-1H-benzimidazol-2-yl)methyl]-8-(2,2-difluorocyclopropyl)-2-(morpholin-4-yl)pyrazolo[1,5-a][1,3,5]triazin-4-amine] | 7.54 | 0.728 | 3.89 | 

Continued by falling DC50 [2], values first:

IC50 ([1]; Homo sapiens, CAL-120, 96 h) [nM] | DC50 [2] [nM] | IC50 [3] [nM] | IC50 [1] [nM] | Compound
12.1 | 1.02 | 10.3 |  | CN1CCN(c2nc(NCc3nc4ccccc4[nH]3)n3ncc(C4CC4)c3n2)CC1 [Example 246, N-[(1H-benzimidazol-2-yl)methyl]-8-cyclopropyl-2-(4-methylpiperazin-1-yl)pyrazolo[1,5-a][1,3,5]triazin-4-amine]
4.11 | 0.914 | 5.83 |  | CN1CCN(c2nc(NCc3nc4cc(F)c(Cl)cc4[nH]3)n3ncc(C4CC4)c3n2)CC1 [Example 309, N-[(6-chloro-5-fluoro-1H-benzimidazol-2-yl)methyl]-8-cyclopropyl-2-(4-methylpiperazin-1-yl)pyrazolo[1,5-a][1,3,5]triazin-4-amine]
 | 0.152 | 3.42 | 6.03 | CC1CN(C)CCN1c1nc(NCc2nc3ccccc3[nH]2)n2ncc(Br)c2n1 (single isomer, unassigned; enantiomer 1) [Example 260, N-(1H-benzimidazol-2-ylmethyl)-8-bromo-2-[(2R or S)-2,4-dimethylpiperazin-1-yl]pyrazolo[1,5-a][1,3,5]triazin-4-amine (Enantiomer 1)]
